What all share (format): functional
Test [1] has as its system Ambrosia artemisiifolia. The experiment in a line: Herbicidal activity against Ambrosia artemisiifolia (ragweed) at 1000 ppm relative to control.
The subject of test [2] is Xanthium strumarium. The experiment in a line: Herbicidal activity against Xanthium strumarium (cocklebur) at 1000 ppm relative to control.
Test [3] deals with Eleusine indica. The experiment in a line: Herbicidal activity against Eleusine indica at 1000 ppm relative to control.

We go through two molecules from ChEMBL document CHEMBL3046577, “Stereocontrolled synthesis of spirosuccinimide derivative of (+)-hydantocidin” (1995).

The source made the active and inactive calls. The calls are words filed in the database; no cut-off is given here.

For `O=C1C[C@@]2(O[C@H](CO)[C@@H](O)[C@H]2O)C(=O)N1`, the values for the Activity in test [1], in test [2] and in test [3] were 90%, 90% and 70%, respectively.

Consider `O=C1NC(=O)[C@@]2(N1)O[C@H](CO)[C@@H](O)[C@H]2O`, for which the result in test [1], in test [2] and in test [3] was Active.
